Data published in US20150305333A1, “USE OF GLUCOSAMINE AMIDES AS PLANT GROWTH AND YIELD ENHANCERS” (PIONEER HI-BRED INTERNATIONAL, INC., priority 2012, published 2015).

Key:
Format in all cases: in vivo
soybean seeds = assay: Petri dish seed germination assay, soybean
Description: (§1) A series of Petri dish seed assays was conducted to evaluate the effects NPG on the seed germination rates of corn, soybean, and canola seeds subjected to cold stress, salt stress and non-stressed conditions (salt stress only for canola). Assays were performed with ten replications of ten seeds/plate (100 total seeds). NPG was applied to seeds at the specified concentrations prior to being placed in Petri plates. Seeds designated for Salt Stress Experiments 1 & 2 were placed in Petri dishes containing a 100 mM NaCl solution and incubated at 21° C.-22° C. in the dark. Cold stress Petri dishes were incubated at 15° C. in the dark. Untreated Controls were incubated at 21° C.-22° C. in the dark as were seeds utilized in the separately conducted non-stressed germination assays. Data was recorded as percent germination at designated times after plating. Statistical analyses were performed using one-way Anova and Kruskal-Wallis one-way analysis of variance on rank combined with Dunn's all pairwise multiple comparison procedure (α=0.05).

canola seeds = assay: Petri dish seed germination assay, canola; details: Salt Stress (100 mM NaCl)
Description: as §1

[1] = system: AC Metcalf spring barley (Hordeum vulgare); assay: Spring barley field trial 2011: emergence, vigor, tillering; details: for Barley Crop Vigor (1-5 scale): vigor scale of Example 3; for Barley Plant Tillers: 24 DAP
Description: A spring barley field trial was conducted to evaluate the effects of NPG on plant emergence and vigor in AC Metcalf spring barley (Hordeum vulgare) planted near Wetaskiwin, Alberta, Canada, in 2011. Seed treatments included an Untreated Control, 10^−7 M NPG seed coating, 10^−7 M NPG seed coating followed by an NPG foliar treatment (10^−7 M NPG+Foliar), 10^−6 M natural LCO, and 10^−6 M commercial LCO plus a commercial rhizobia inoculant (LCO+RI) applied as a seed coating. The natural LCO was provided by Dr. Don Smith (McGill University, Montreal, Canada) and prepared as described in Example 2.
Seed coating was performed by injecting 7 mL of aqueous NPG solution per 100 g barley seed into the coating machine followed by treatment and drying. […] Foliar NPG was applied 47 days after planting. Plants were sprayed using a four-nozzle hollow-cone boom and CO2 propellant at a speed of 10.8 km/h and 40 psi, with a mix size of 1.0 L and spray rate of 110 L/ha water volume. Seeds designated for use as the Untreated Control also received the fungicide maintenance treatment.
Treated seeds were sent to the DuPont Wetaskiwin, Alberta, Canada, Research Station and planted on May 19th in a loam composed of 29% sand, 46% silt and 25% clay and 4.8% organic matter. […] Barley was planted at a rate of 100 kg seeds/ha to a depth of 2.5 cm. Weeds were controlled using 60 grams ai/ha pinoxaden, 30 grams/ha thifensulfuron methyl, and 280 grams ai/ha 4-chloro-2-methylphenox acetic acid, 2-ethylhexyl ester. Adigor surfactant was used at a rate of 700 ml/hectare. All of the products used are considered industry standards and representative of what is used in commercial production.
The trial was conducted using a randomized complete block design with a plot size of 2 m by 6 m with 22.9 cm row spacing, 3.3 cm plant spacing and four replications. Height and yield data was not collected in this trial due to a large hailstorm on Jul. 18, 2011.
Crop vigor was observed 11 and 14 days DAP using the vigor scale described in Example 3 (Table 12).

[2] = 10^−7M seed coating + Foliar, 11 DAP
[3] = 10^−7M seed coating + Foliar, 14 DAP

What does the source list for `CCCCCCC=CCCCCCCCC(=O)NC1C(OC)OC(CO)C(O)C1O` [NPG, Methyl 2-deoxy-2-N-(hexadece-9,10-cis-eneoyl)-β-D-glucopyranoside]?
Soybean Seed Germination (soybean seeds; Cold Stress (15° C.), 10^−6M × 4 Times, 30 HAP): 29a %; Soybean Seed Germination (soybean seeds; Cold Stress (15° C.), 10^−6M × 4 Times, 36 HAP): 58a %; Soybean Seed Germination (soybean seeds; Cold Stress (15° C.), 10^−6M × 4 Times, 44 HAP): 81a %; Soybean Seed Germination (soybean seeds; Cold Stress (15° C.), 10^−6M × 4 Times, 50 HAP): 90a %; Soybean Seed Germination (soybean seeds; Cold Stress (15° C.), 10^−6M × 4 Times, 60 HAP): 97a %; Soybean Seed Germination (soybean seeds; Cold Stress (15° C.), 10^−6M, 30 HAP): 26a %; Soybean Seed Germination (soybean seeds; Cold Stress (15° C.), 10^−6M, 36 HAP): 58a %; Soybean Seed Germination (soybean seeds; Cold Stress (15° C.), 10^−6M, 44 HAP): 80a %; Soybean Seed Germination (soybean seeds; Cold Stress (15° C.), 10^−6M, 50 HAP): 90a %; Soybean Seed Germination (soybean seeds; Cold Stress (15° C.), 10^−6M, 60 HAP): 96a %; Soybean Seed Germination (soybean seeds; Cold Stress (15° C.), 10^−7M, 30 HAP): 23a %; Soybean Seed Germination (soybean seeds; Cold Stress (15° C.), 10^−7M, 36 HAP): 51a %; Soybean Seed Germination (soybean seeds; Cold Stress (15° C.), 10^−7M, 44 HAP): 84a %; Soybean Seed Germination (soybean seeds; Cold Stress (15° C.), 10^−7M, 50 HAP): 91a %; Soybean Seed Germination (soybean seeds; Cold Stress (15° C.), 10^−7M, 60 HAP): 95a %; Soybean Seed Germination (soybean seeds; Non-Stressed, 10^−6M × 4 Times, 27 HAP): 72a %; Soybean Seed Germination (soybean seeds; Non-Stressed, 10^−6M × 4 Times, 34 HAP): 88a %; Soybean Seed Germination (soybean seeds; Non-Stressed, 10^−6M × 4 Times, 45 HAP): 94a %; Soybean Seed Germination (soybean seeds; Non-Stressed, 10^−6M, 27 HAP): 70a %; Soybean Seed Germination (soybean seeds; Non-Stressed, 10^−6M, 34 HAP): 93a %; Soybean Seed Germination (soybean seeds; Non-Stressed, 10^−6M, 45 HAP): 97a %; Soybean Seed Germination (soybean seeds; Salt Stress (100 mM NaCl), 10^−6M × 4 Times, 27 HAP): 17a %; Soybean Seed Germination (soybean seeds; Salt Stress (100 mM NaCl), 10^−6M × 4 Times, 34 HAP): 76ab %; Soybean Seed Germination (soybean seeds; Salt Stress (100 mM NaCl), 10^−6M × 4 Times, 45 HAP): 89ab %; Soybean Seed Germination (soybean seeds; Salt Stress (100 mM NaCl), 10^−6M × 4 Times, 55 HAP): 96a %; Soybean Seed Germination (soybean seeds; Salt Stress (100 mM NaCl), 10^−6M × 4 Times, 65 HAP): 99a %; Soybean Seed Germination (soybean seeds; Salt Stress (100 mM NaCl), 10^−6M, 27 HAP): 22a %; Soybean Seed Germination (soybean seeds; Salt Stress (100 mM NaCl), 10^−6M, 34 HAP): 73ab %; Soybean Seed Germination (soybean seeds; Salt Stress (100 mM NaCl), 10^−6M, 45 HAP): 83ab %; Soybean Seed Germination (soybean seeds; Salt Stress (100 mM NaCl), 10^−6M, 55 HAP): 95a %; Soybean Seed Germination (soybean seeds; Salt Stress (100 mM NaCl), 10^−6M, 65 HAP): 99a %; Canola Seed Germination (canola seeds; 10^−6M, 30 HAP): 14b %; Canola Seed Germination (canola seeds; 10^−6M, 39 HAP): 67.3ab %; Canola Seed Germination (canola seeds; 10^−6M, 48 HAP): 84a %; Canola Seed Germination (canola seeds; 10^−7M, 30 HAP): 22.7ab %; Canola Seed Germination (canola seeds; 10^−7M, 39 HAP): 80.7a %; Canola Seed Germination (canola seeds; 10^−7M, 48 HAP): 88.7a %; Barley Crop Emergence [1, 2]: 25a plants/m row; Barley Crop Vigor (1-5 scale) [1, 2]: 3a; Barley Crop Emergence [1, 3]: 31.8a plants/m row; Barley Crop Vigor (1-5 scale) [1, 3]: 4a; Barley Plant Tillers ([1]; 10^−7M seed coating + Foliar): 95a %; Barley Crop Emergence ([1]; 10^−7M seed coating, 11 DAP): 22.5a plants/m row; Barley Crop Vigor (1-5 scale) ([1]; 10^−7M seed coating, 11 DAP): 3a; Barley Crop Emergence ([1]; 10^−7M seed coating, 14 DAP): 27.4a plants/m row; Barley Crop Vigor (1-5 scale) ([1]; 10^−7M seed coating, 14 DAP): 4a; Barley Plant Tillers ([1]; 10^−7M seed coating): 83a %
